Measured values from patent USRE38117E1, “Trioxane dimer compound having antiproliferative and antitumor activities” (Hauser, Inc., priority 1995, dated 2003).

Key:
Format in all cases: cell-based
CCRF-CEM = assay: NCI 60 cell line screen (SRB), Leukemia
K-562 = assay: NCI 60 cell line screen (SRB), Leukemia; conditions: K-562 (Leukemia)
MOLT-4 = assay: NCI 60 cell line screen (SRB), Leukemia; conditions: MOLT-4 (Leukemia)
RPMI-8226 = assay: NCI 60 cell line screen (SRB), Leukemia; conditions: RPMI-8226 (Leukemia)
SR = assay: NCI 60 cell line screen (SRB), Leukemia
A549/ATCC = assay: NCI 60 cell line screen (SRB), Non-Small Cell Lung Cancer
HOP-62 = assay: as above; conditions: HOP-62 (Non-Small Cell Lung Cancer)
NCI-H226 = assay: as above
NCI-H322M = assay: as above
NCI-H522 = assay: as above
COLO 205 = assay: NCI 60 cell line screen (SRB), Colon Cancer; conditions: COLO 205 (Colon Cancer)
HCT-116 = assay: NCI 60 cell line screen (SRB), Colon Cancer; conditions: HCT-116 (Colon Cancer)
HT29 = assay: NCI 60 cell line screen (SRB), Colon Cancer
KM12 = assay: NCI 60 cell line screen (SRB), Colon Cancer
SW-620 = assay: NCI 60 cell line screen (SRB), Colon Cancer; conditions: SW-620 (Colon Cancer)
SF-268 = assay: NCI 60 cell line screen (SRB), CNS Cancer; conditions: SF-268 (CNS Cancer)
SF-295 = assay: NCI 60 cell line screen (SRB), CNS Cancer; conditions: SF-295 (CNS Cancer)
SNB-75 = assay: NCI 60 cell line screen (SRB), CNS Cancer; conditions: SNB-75 (CNS Cancer)
U251 = assay: NCI 60 cell line screen (SRB), CNS Cancer
M14 = assay: NCI 60 cell line screen (SRB), Melanoma
SK-MEL-28 = assay: NCI 60 cell line screen (SRB), Melanoma; conditions: SK-MEL-28 (Melanoma)
SK-MEL-5 = assay: NCI 60 cell line screen (SRB), Melanoma; conditions: SK-MEL-5 (Melanoma)
UACC-62 = assay: NCI 60 cell line screen (SRB), Melanoma; conditions: UACC-62 (Melanoma)
OVCAR-4 = assay: NCI 60 cell line screen (SRB), Ovarian Cancer; conditions: OVCAR-4 (Ovarian Cancer)
OVCAR-5 = assay: NCI 60 cell line screen (SRB), Ovarian Cancer; conditions: OVCAR-5 (Ovarian Cancer)
786-0 = assay: NCI 60 cell line screen (SRB), Renal Cancer; conditions: 786-0 (Renal Cancer)
A498 = assay: NCI 60 cell line screen (SRB), Renal Cancer
CAKI-1 = assay: NCI 60 cell line screen (SRB), Renal Cancer; conditions: CAKI-1 (Renal Cancer)
UO-31 = assay: NCI 60 cell line screen (SRB), Renal Cancer; conditions: UO-31 (Renal Cancer)
PC-3 = assay: NCI 60 cell line screen (SRB), Prostate Cancer; conditions: PC-3 (Prostate Cancer)
MDA-MB-435 = assay: NCI 60 cell line screen (SRB), Breast Cancer; conditions: MDA-MB-435 (Breast Cancer)
MDA-N = assay: NCI 60 cell line screen (SRB), Breast Cancer

COC1OC2(C)CCC3CCCC(CCOCCC4CCCC5CCC6(C)OOC45C(OC)O6)C31OO2 (stereo not drawn) [Compound 6, Trioxane Ether Dimer]
Log10GI50 (CCRF-CEM): −6.27 M | Log10LC50 (CCRF-CEM): >−4.00 M | Log10TGI (CCRF-CEM): −4.61 M | Log10GI50 (K-562): −6.75 M | Log10LC50 (K-562): >−4.00 M | Log10TGI (K-562): >−4.00 M | Log10GI50 (MOLT-4): −6.27 M | Log10LC50 (MOLT-4; listed as Ether Dimer): >−4.00 M | Log10TGI (MOLT-4; listed as Ether Dimer): >−4.00 M | Log10LC50 (MOLT-4; listed as either dimer): greater than −400. M | Log10TGI (MOLT-4; listed as ether dimer): 4.50 M | Log10GI50 (RPMI-8226): −6.69 M | Log10LC50 (RPMI-8226): >−4.00 M | Log10TGI (RPMI-8226): −5.47 M | Log10GI50 (SR): −7.19 M | Log10LC50 (SR): >−4.00 M | Log10TGI (SR): −5.93 M | Log10GI50 (A549/ATCC): −5.79 M | Log10LC50 (A549/ATCC): >−4.00 M | Log10TGI (A549/ATCC): >−4.00 M | Log10GI50 (HOP-62): −4.92 M | Log10LC50 (HOP-62): >−4.00 M | Log10TGI (HOP-62): >−4.00 M | Log10GI50 (NCI-H226): −5.36 M | Log10LC50 (NCI-H226): >−4.00 M | Log10TGI (NCI-H226): >−4.00 M | Log10GI50 (NCI-H322M): >−4.00 M | Log10LC50 (NCI-H322M): >−4.00 M | Log10TGI (NCI-H322M): >−4.00 M | Log10GI50 (NCI-H522): −6.13 M | Log10LC50 (NCI-H522): >−4.00 M | Log10TGI (NCI-H522): −4.76 M | Log10GI50 (COLO 205): −6.85 M | Log10LC50 (COLO 205): −5.77 M | Log10TGI (COLO 205): −6.36 M | Log10GI50 (HCT-116): −6.98 M | Log10LC50 (HCT-116): >−4.00 M | Log10TGI (HCT-116): >−4.00 M | Log10GI50 (HT29): −6.24 M | Log10LC50 (HT29): >−4.00 M | Log10TGI (HT29): >−4.00 M | Log10GI50 (KM12): −6.85 M | Log10LC50 (KM12): >−4.00 M | Log10TGI (KM12): −4.28 M | Log10GI50 (SW-620): −6.66 M | Log10LC50 (SW-620): >−4.00 M | Log10TGI (SW-620): >−4.00 M | Log10GI50 (SF-268): −5.07 M | Log10LC50 (SF-268): >−4.00 M | Log10TGI (SF-268): >−4.00 M | Log10GI50 (SF-295): −5.61 M | Log10LC50 (SF-295): >−4.00 M | Log10TGI (SF-295): >−4.00 M | Log10LC50 (SNB-75): >−4.00 M | Log10TGI (SNB-75): >−4.00 M | Log10GI50 (U251): −6.35 M | Log10LC50 (U251): >−4.00 M | Log10TGI (U251): >−4.00 M | Log10GI50 (M14): −5.59 M | Log10LC50 (M14): >−4.00 M | Log10TGI (M14): >−4.00 M | Log10GI50 (SK-MEL-28): −4.24 M | Log10LC50 (SK-MEL-28): >−4.00 M | Log10TGI (SK-MEL-28): >−4.00 M | Log10GI50 (SK-MEL-5): −7.39 M | Log10LC50 (SK-MEL-5): −4.15 M | Log10TGI (SK-MEL-5): −4.90 M | Log10GI50 (UACC-62): −6.46 M | Log10LC50 (UACC-62): >−4.00 M | Log10TGI (UACC-62): >−4.00 M | Log10GI50 (OVCAR-4): −5.11 M | Log10LC50 (OVCAR-4): >−4.00 M | Log10TGI (OVCAR-4): >−4.00 M | Log10GI50 (OVCAR-5): −6.39 M | Log10LC50 (OVCAR-5): >−4.00 M | Log10TGI (OVCAR-5): >−4.00 M | Log10GI50 (786-0): −5.65 M | Log10LC50 (786-0): >−4.00 M | Log10TGI (786-0): −4.53 M | Log10GI50 (A498): >−4.00 M | Log10LC50 (A498): >−4.00 M | Log10TGI (A498): >−4.00 M | Log10GI50 (CAKI-1): −5.44 M | Log10LC50 (CAKI-1): >−4.00 M | Log10TGI (CAKI-1): >−4.00 M | Log10GI50 (UO-31): −6.37 M | Log10LC50 (UO-31): −4.38 M | Log10GI50 (PC-3): −7.85 M | Log10LC50 (PC-3): −4.00 M | Log10TGI (PC-3): −4.75 M | Log10GI50 (MDA-MB-435): −6.38 M | Log10LC50 (MDA-MB-435): >−4.00 M | Log10TGI (MDA-MB-435): >−4.00 M | Log10GI50 (MDA-N): −6.19 M | Log10LC50 (MDA-N): >−4.00 M | Log10TGI (MDA-N): >−4.00 M
